{
  "source": "patent US6506885B1",
  "about": "“Monoclonal antibodies to the drug tilmicosin and a method for detecting the same” (The United States of America as represented by the …, priority 2001, dated 2003)",
  "key": {"[1]": {"tested_on": "monoclonal antibody 37-4-5 (Til-1)", "test": "competitive indirect ELISA (ciELISA) on (XII) coated plates, antibody 37-4-5", "format": "binding", "description": "(§1) The supernatant culture fluid from the cloned hybridomas also may be screened to select for those producing antibodies having a high affinity for tilmicosin. Affinity may be measured using solid phase immunoassays such as ELISA, RIA, or equilibrium dialysis using labeled tilmicosin. In the preferred embodiment, affinity is measured by competitive indirect ELISA as described in the Examples, and is conducted at a final antibody concentration (dilution from the tissue culture supernatant) to give 50% of maximal binding to a tilmicosin- or 23-deoxo-23-demycinosyl tilmicosin-carrier complex coated substrate or assay well (i.e., the concentration of the antibody that results in 50% of the plateau activity in direct binding ELISA). […] Following incubation and washing, bound antibody in the wells is determined in the same manner as the db-ELISA. Percent inhibition may be calculated as (1−B/Bo)×100, where B is the optical density (OD) of a well with a competitor and Bo is the mean OD of the wells without competitor (control). […]\n(§2) The cells which were positive in the initial screening and expanded were analyzed by competitive indirect ELISA (ciELISA) below for inhibition of antibody binding in the presence of free (unconjugated) tilmicosin on (XII) coated antigen plates. […]"}, "[2]": {"tested_on": "monoclonal antibody 37-2-6", "test": "competitive indirect ELISA (ciELISA) on (XII) coated plates, antibody 37-2-6", "format": "binding", "description": "as §1, §2"}, "[3]": {"tested_on": "monoclonal antibody 47-1-1", "test": "competitive indirect ELISA (ciELISA) on (XII) coated plates, antibody 47-1-1", "format": "binding", "description": "as §1, §2"}, "[4]": {"tested_on": "monoclonal antibody 9-7-7", "test": "competitive indirect ELISA (ciELISA) on (XII) coated plates, antibody 9-7-7", "format": "binding", "description": "as §1, §2"}, "[5]": {"tested_on": "monoclonal antibody 9-1-4 (Til-5)", "test": "competitive indirect ELISA (ciELISA) on (XII) coated plates, antibody 9-1-4", "format": "binding", "description": "as §1, §2"}, "[6]": {"tested_on": "monoclonal antibody 9-5-3", "test": "competitive indirect ELISA (ciELISA) on (XII) coated plates, antibody 9-5-3", "format": "binding", "description": "as §1, §2"}, "[7]": {"settings": "bovine lung tissue; after serum levels dropped below therapeutic concentrations; cited from earlier work"}, "[8]": {"settings": "(IC50 of Tilmicosin)/(IC50 of other Compound) X100, — = no cross-reactivity observed"}},
  "data": [
    {"compound": "CC1CNCC(C)C1", "note": "(stereo not shown) [3,5-dimethyl piperidine]", "values": [
      {"measurement": "% Competition (percentage of cross-reactivity)", "setting": "[1]; [8]", "result": 19, "unit": "%"},
      {"measurement": "IC50, pmol/well", "setting": "[1]; free compound as competitor", "result": 61.8, "unit": "pmol/well"},
      {"measurement": "% Competition (percentage of cross-reactivity)", "setting": "[2]; [8]", "result": 24, "unit": "%"},
      {"measurement": "IC50, pmol/well", "setting": "[2]; free compound as competitor", "result": 44.2, "unit": "pmol/well"},
      {"measurement": "% Competition (percentage of cross-reactivity)", "setting": "[3]; [8]", "result": 17, "unit": "%"},
      {"measurement": "IC50, pmol/well", "setting": "[3]; free compound as competitor", "result": 44.2, "unit": "pmol/well"},
      {"measurement": "% Competition (percentage of cross-reactivity)", "setting": "[4]; [8]", "result": 26, "unit": "%"},
      {"measurement": "IC50, pmol/well", "setting": "[4]; free compound as competitor", "result": 40.6, "unit": "pmol/well"},
      {"measurement": "% Competition (percentage of cross-reactivity)", "setting": "[5]; [8]", "result": 18, "unit": "%"},
      {"measurement": "IC50, pmol/well", "setting": "[5]; free compound as competitor", "result": 41.5, "unit": "pmol/well"},
      {"measurement": "% Competition (percentage of cross-reactivity)", "setting": "[6]; [8]", "result": 72, "unit": "%"},
      {"measurement": "IC50, pmol/well", "setting": "[6]; free compound as competitor", "result": 35.3, "unit": "pmol/well"}
    ]},
    {"compound": "CCC1OC(=O)CC(O)C(C)C(OC2OC(C)C(O)C(N(C)C)C2O)C(CCN2CC(C)CC(C)C2)CC(C)C(=O)C=CC(C)=CC1COC1OC(C)C(O)C(OC)C1OC", "note": "(stereo not shown) [Tilmicosin]", "values": [
      {"measurement": "time lung concentrations exceed the P. haemolytica MIC after dosage", "setting": "[7]", "result": "at least 72 hours"}
    ]}
  ]
}
